Values after ≈ are worked out from the molar mass of the structure shown. Square brackets hold non-standard residues; d marks the D form. Peptide text beside a SMILES is read from it. * marks the point of attachment. Orn = NCCC[C@H](N)C(=O)O; βNA = c1ccc2cc(N*)ccc2c1
What was measured:
[1] = test system: Pseudomonas aeruginosa; test: (§1) Volume of synergy by MacSynergy II 3-D analysis.; type: functional
[2] = test system: Pseudomonas aeruginosa; test: Minimum Inhibitory concentration required to inhibit the growth of Pseudomonas aeruginosa (strain PAM 1032).; type: functional
[3] = test system: Pseudomonas aeruginosa; test: Minimum Inhibitory concentration required to reduce the MIC of levofloxacin by 8-fold against PAM 1032; type: functional
[4] = test system: Pseudomonas aeruginosa; test: Minimum inhibitory concentration of Levofloxacin in presence at a concentration of 20 ug/mL against PAM 1033; type: functional
[5] = test system: Pseudomonas aeruginosa; test: Minimum inhibitory concentration of Levofloxacin in presence at a concentration of 40 ug/mL against PAM 1033; type: functional
[6] = Volume of synergy by MacSynergy II 3-D analysis
[7] = test system: Pseudomonas aeruginosa; test: Minimum inhibitory concentration of Levofloxacin in presence at a concentration of 5 ug/mL against PAM 1034; type: functional
[8] = test system: Pseudomonas aeruginosa; test: Minimum inhibitory concentration of Levofloxacin in presence at a concentration of 40 ug/mL against PAM 1032; type: functional
[9] = test system: Pseudomonas aeruginosa; test: Minimum inhibitory concentration of Levofloxacin in presence at a concentration of 1.25 ug/mL against PAM 1033; type: functional
[10] = test system: Pseudomonas aeruginosa; test: Minimum inhibitory concentration of Levofloxacin in presence at a concentration of 10 ug/mL against PAM 1032; type: functional
[11] = test system: Pseudomonas aeruginosa; test: Minimum inhibitory concentration of Levofloxacin in presence at a concentration of 1.25 ug/mL against PAM 1032; type: functional
[12] = test system: Pseudomonas aeruginosa; test: Minimum Inhibitory concentration required to inhibit the growth of Pseudomonas aeruginosa (strain PAM 1032); type: functional
[13] = test system: Pseudomonas aeruginosa; test: Minimum inhibitory concentration of Levofloxacin in presence at a concentration of 40 ug/mL against PAM 1034; type: functional
[14] = test system: Pseudomonas aeruginosa; test: Minimum inhibitory concentration of Levofloxacin in presence at a concentration of 2.5 ug/mL against PAM 1032; type: functional
[15] = test system: Pseudomonas aeruginosa; test: Minimum inhibitory concentration of Levofloxacin in presence at a concentration of 2.50 ug/mL against PAM 1033; type: functional
[16] = test system: Pseudomonas aeruginosa; test: Minimum Inhibitory concentration required to reduce the MIC of levofloxacin by 8-fold against PAM 1033; type: functional
[17] = test system: Pseudomonas aeruginosa; test: Minimum inhibitory concentration of Levofloxacin in presence at a concentration of 0 ug/mL against PAM 1034; type: functional
[18] = test system: Pseudomonas aeruginosa; test: Minimum inhibitory concentration of Levofloxacin in presence at a concentration of 20 ug/mL against PAM 1034; type: functional
[19] = test system: Pseudomonas aeruginosa; test: Minimum inhibitory concentration of Levofloxacin in presence at a concentration of 0 ug/mL against PAM 1032; type: functional
[20] = test system: Pseudomonas aeruginosa; test: Minimum inhibitory concentration of Levofloxacin in presence at a concentration of 0 ug/mL against PAM 1033; type: functional
[21] = test system: Pseudomonas aeruginosa; test: Minimum inhibitory concentration of Levofloxacin in presence at a concentration of 50 ug/mL against PAM 1033; type: functional
[22] = test system: Pseudomonas aeruginosa; test: Minimum inhibitory concentration of Levofloxacin in presence at a concentration of 10 ug/mL against PAM 1034; type: functional
[23] = test system: Pseudomonas aeruginosa; test: Minimum inhibitory concentration of Levofloxacin in presence at a concentration of 5 ug/mL against PAM 1032; type: functional
[24] = test system: Pseudomonas aeruginosa; test: Minimum inhibitory concentration of Levofloxacin in presence at a concentration of 20 ug/mL against PAM 1032; type: functional
[25] = test system: Pseudomonas aeruginosa; test: Minimum inhibitory concentration of Levofloxacin in presence at a concentration of 2.5 ug/mL against PAM 1034; type: functional
[26] = test system: Pseudomonas aeruginosa; test: Minimum Inhibitory concentration required to reduce the MIC of levofloxacin by 8-fold against PAM 1034; type: functional
[27] = test system: Pseudomonas aeruginosa; test: Minimum inhibitory concentration of Levofloxacin in presence at a concentration of 10 ug/mL against PAM 1033; type: functional
[28] = test system: Pseudomonas aeruginosa; test: Minimum inhibitory concentration of Levofloxacin in presence at a concentration of 1.25 ug/mL against PAM 1034; type: functional
[29] = as §1
[30] = test system: Pseudomonas aeruginosa; test: Minimum Inhibitory concentration required to reduce the MIC of levofloxacin by 8-fold against PAM 1034.; type: functional
[31] = test system: Pseudomonas aeruginosa; test: Minimum inhibitory concentration of Levofloxacin in presence at a concentration of 10 ug/mL against PAM 1034.; type: functional
[32] = test system: Pseudomonas aeruginosa; test: Minimum inhibitory concentration of Levofloxacin in presence at a concentration of 2.5 ug/mL against PAM 1034.; type: functional
[33] = test system: Pseudomonas aeruginosa; test: Minimum inhibitory concentration of Levofloxacin in presence at a concentration of 20 ug/mL against PAM 1034.; type: functional
[34] = test system: Pseudomonas aeruginosa; test: Minimum inhibitory concentration of Levofloxacin in presence at a concentration of 5 ug/mL against PAM 1034.; type: functional
[35] = test system: Pseudomonas aeruginosa; test: Minimum inhibitory concentration of Levofloxacin in presence at a concentration of 50 ug/mL against PAM 1033.; type: functional
[36] = test system: Pseudomonas aeruginosa; test: Minimum inhibitory concentration of Levofloxacin in presence at a concentration of 10 ug/mL against PAM 1033.; type: functional
[37] = test system: Pseudomonas aeruginosa; test: Minimum inhibitory concentration of Levofloxacin in presence at a concentration of 40 ug/mL against PAM 1033.; type: functional
[38] = test system: Pseudomonas aeruginosa; test: Minimum inhibitory concentration of Levofloxacin in presence at a concentration of 1.25 ug/mL against PAM 1034.; type: functional
[39] = test system: Pseudomonas aeruginosa; test: Minimum inhibitory concentration of Levofloxacin in presence at a concentration of 0 ug/mL against PAM 1034.; type: functional
[40] = test system: Pseudomonas aeruginosa; test: Minimum Inhibitory concentration required to reduce the MIC of levofloxacin by 8-fold against PAM 1033.; type: functional
[41] = test system: Pseudomonas aeruginosa; test: Minimum inhibitory concentration of Levofloxacin in presence at a concentration of 20 ug/mL against PAM 1033.; type: functional
[42] = test system: Pseudomonas aeruginosa; test: Minimum inhibitory concentration of Levofloxacin in presence at a concentration of 2.50 ug/mL against PAM 1033.; type: functional
[43] = test system: Pseudomonas aeruginosa; test: Minimum inhibitory concentration of Levofloxacin in presence at a concentration of 40 ug/mL against PAM 1034.; type: functional

`NCCC[C@H](NC(=O)[C@@H](N)Cc1ccccc1)C(=O)Nc1ccc2ccccc2c1` showed a VOLSYN [1] of 1760, an MIC [2] of 512 µg/mL (≈ 1270 µM) and an MPC8 [3] of 5 µg/mL.
In the case of `NCCC[C@H](NC(=O)[C@@H](N)CCc1ccccc1)C(=O)Nc1cnc2ccccc2c1`, the MIC [4] is reported as 0.06 µg/mL (≈ 0.143 µM), the MIC [5] is reported as 0.06 µg/mL (≈ 0.143 µM) and the VOLSYN [6] is reported as 2590. For the same compound, the MIC [7] was 0.25 µg/mL (≈ 0.596 µM), the MIC [8] was 0.06 µg/mL (≈ 0.143 µM) and the MIC [9] was 2 µg/mL (≈ 4.77 µM). For the same compound, the MIC [10] was 0.06 µg/mL (≈ 0.143 µM), the MIC [11] was 1 µg/mL (≈ 2.38 µM) and the MIC [12] was over 512 µg/mL. The MIC [13] was 0.125 µg/mL (≈ 0.298 µM), the MIC [14] was 0.5 µg/mL (≈ 1.19 µM) and the MIC [15] was 0.5 µg/mL (≈ 1.19 µM). It also gave an MPC8 [16] of 2.5 µg/mL, an MIC [17] of 4 µg/mL (≈ 9.53 µM) and an MIC [18] of 0.125 µg/mL (≈ 0.298 µM). For the same compound, the MIC [19] was 2 µg/mL (≈ 4.77 µM), the MIC [20] was 4 µg/mL (≈ 9.53 µM) and the MIC [21] was 0.125 µg/mL (≈ 0.298 µM). The MIC [22] was 0.125 µg/mL (≈ 0.298 µM), the MIC [23] was 0.125 µg/mL (≈ 0.298 µM) and the MIC [24] was 0.06 µg/mL (≈ 0.143 µM). It also gave an MIC [25] of 1 µg/mL (≈ 2.38 µM), an MPC8 [26] of 5 µg/mL and an MIC [27] of 0.06 µg/mL (≈ 0.143 µM). It also gave an MPC8 [3] of 5 µg/mL and an MIC [28] of 4 µg/mL (≈ 9.53 µM).
Work on `NCCC[C@H](NC(=O)[C@@H](N)CCc1ccccc1)C(=O)Nc1ccc2ccccc2c1` yielded a VOLSYN [1] of 2612, an MIC [2] of 128 µg/mL (≈ 306 µM) and an MPC8 [3] of 2.5 µg/mL.
For `C[C@H](N)C(=O)N[C@@H](CCCN)C(=O)Nc1ccc2ccccc2c1` (H-Ala-[Orn]-βNA), the VOLSYN [1] was 486, the MIC [2] was over 512 µg/mL and the MPC8 [3] was 40 µg/mL.
With `NCCC[C@H](NC(=O)[C@@H](N)Cc1ccc(F)cc1)C(=O)Nc1ccc2ccccc2c1` the VOLSYN [1] was 2343, the MIC [2] was 512 µg/mL (≈ 1210 µM) and the MPC8 [3] was 5 µg/mL.
`NCCC[C@H](NC(=O)[C@@H](N)CCc1ccccc1)C(=O)Nc1ccccc1` showed a VOLSYN [29] of 906, an MIC [12] of over 512 µg/mL and an MPC8 [3] of over 40 µg/mL.
With `N[C@@H](Cc1ccccc1)C(=O)N[C@@H](Cc1c[nH]cn1)C(=O)Nc1ccc2ccccc2c1` (H-Phe-His-βNA) the VOLSYN [1] was 463, the MIC [2] was over 512 µg/mL and the MPC8 [3] was over 40 µg/mL.
Compound `CN(C(=O)[C@@H](N)Cc1ccccc1)[C@@H](CCCN)C(=O)Nc1ccc2ccccc2c1` has a VOLSYN [1] of 2825, an MIC [2] of 256 µg/mL (≈ 612 µM) and an MPC8 [3] of 5 µg/mL.
For `NCCC[C@H](NC(=O)[C@@H](N)CCc1ccccc1)C(=O)Nc1ccc2c(c1)CCC2`, the VOLSYN [6] was 2220, the MIC [12] was 256 µg/mL (≈ 627 µM) and the MPC8 [3] was 2.5 µg/mL.
With `NCCCC[C@H](NC(=O)[C@@H](N)Cc1ccccc1)C(=O)Nc1ccc2ccccc2c1` the VOLSYN [1] was 1390, the MIC [2] was over 512 µg/mL and the MPC8 [3] was 10 µg/mL.
`N=C(N)NCCC[C@H](NC(=O)[C@@H](N)Cc1ccccc1)C(=O)Nc1ccc2ccccc2c1` [PABETAN] (H-Phe-Arg-βNA) gave an MPC8 [30] of 10 µg/mL, an MIC [31] of 0.25 µg/mL (≈ 0.56 µM) and an MIC [32] of 4 µg/mL (≈ 8.96 µM). For the same compound, the MIC [33] was 0.06 µg/mL (≈ 0.134 µM), the MIC [34] was 1 µg/mL (≈ 2.24 µM) and the MIC [8] was 0.06 µg/mL (≈ 0.134 µM). For the same compound, the MIC [9] was 4 µg/mL (≈ 8.96 µM), the MIC [10] was 0.125 µg/mL (≈ 0.28 µM) and the MIC [35] was 0.5 µg/mL (≈ 1.12 µM). It also gave an MIC [36] of 0.125 µg/mL (≈ 0.28 µM), an MIC [37] of 0.125 µg/mL (≈ 0.28 µM) and an MIC [11] of 2 µg/mL (≈ 4.48 µM). It also gave an MIC [38] of 4 µg/mL (≈ 8.96 µM), an MIC [12] of over 512 µg/mL and an MIC [14] of 1 µg/mL (≈ 2.24 µM). It also gave an MIC [19] of 2 µg/mL (≈ 4.48 µM), an MIC [39] of 4 µg/mL (≈ 8.96 µM) and an MIC [20] of 4 µg/mL (≈ 8.96 µM). For the same compound, the MPC8 [40] was 5 µg/mL, the VOLSYN [1] was 1962 and the MIC [23] was 0.5 µg/mL (≈ 1.12 µM). The MIC [41] was 0.125 µg/mL (≈ 0.28 µM), the MIC [24] was 0.06 µg/mL (≈ 0.134 µM) and the MIC [42] was 2 µg/mL (≈ 4.48 µM). For the same compound, the MIC [43] was 0.03 µg/mL (≈ 0.0672 µM) and the MPC8 [3] was 10 µg/mL.
`NCCC[C@H](NC(=O)[C@@H](N)CCc1ccccc1)C(=O)Nc1ccc2ncccc2c1` showed a VOLSYN [29] of 2060, an MIC [12] of over 512 µg/mL and an MPC8 [3] of 10 µg/mL.
Compound `NCCC[C@H](N)C(=O)Nc1ccc2ccccc2c1` has a VOLSYN [1] of 183, an MIC [2] of over 512 µg/mL and an MPC8 [3] of over 40 µg/mL.
